According to patent US20250177392A1, “BROAD SPECTRUM INHIBITORS OF CYTOMEGALOVIRUS” (MICROBIOTIX, INC., priority 2022, published 2025):
Converted amounts (≈) assume the structure as drawn.

Experiments:
CYP3A4 = CYP3A4 (Homo sapiens, UniProt P08684); assay: CYP3A4 inhibition at 10 μM; type: in vitro ADME; conditions: % inhibition of CYP3A4 at 10 μM
CMV AD169^IE2-YFP = assay: Anti-CMV activity (IC50) of NAPA compounds, AD169 IE2-YFP reporter virus high-content assay in fibroblasts; type: cell-based, Human cytomegalovirus; conditions: Human betaherpesvirus 5, AD169, Fibroblast
Method: To identify CMV inhibitors, a high-content screening (HCS) early-stage-specific reporter assay using a CMV AD169 yellow-fluorescent protein (YFP) expressing virus (AD169^IE2-YFP) (Gardner et al., Antiviral Res., 113:49-61 (2015)) was developed to screen >112,000 compounds to identify potent inhibitors (IC50<10 μM) of cytomegalovirus having a minimal mammalian cytotoxicity (CC50) of preferably ≥100 μM. As a result, we have identified, isolated, and characterized a novel series of N-arylpyrimidinamines (NAPAs) that inhibit CMV infection. […] Further, the NAPA compounds are broadly effective at inhibiting virus infection of diverse strains and cell types.
The CMV IE1 and IE2 gene products are translated within 3-6 hours post infection (hpi) and function to stimulate viral promoters to initiate transcription of early and late viral genes (Cherrington et al., J. Virol., 63:1435-40 (1989); Meier et al., J. Virol., 71:1246-1255 (1997)). The CMV AD169 variant that expresses a viral protein chimera consisting of IE2-YFP (AD1691E2/YFP) was utilized to quantify virus infection in a high-throughput screen by a robust fluorescent signal localized exclusively to the nucleus (8-24 hpi) (Gardner et al., supra (2015); Cohen et al., Viruses, 8 (10): 295 (2016); Cohen et al., J. Virol., 90:10715-10727 (2016)). Using the AD1691E2-YFP reporter virus assay, a collection of the compound libraries (>112,000 compounds) was screened for inhibitors of the early stages of CMV replication using a confocal fluorescence microscopic plate reader (BioTek Cytation3). Infection was calculated as a percentage of nuclei containing YFP and cycloheximide (8 μM) was used as a positive control. The Z′ factor for the optimized assay was >0.5 which was sufficient to initiate screening.
We evaluated 300 primary hits using an assay funnel designed to prioritize compounds based on antiviral activity, specificity, and drug-like properties. This identified two candidates for hit-to-lead optimization that were not Pan Assay Interference compounds (PAINS) (Baell et al., J. Med. Chem., 53:2719-40 (2010); Capuzzi et al., J. Chem. Inf. Model 57:417-427 (2017); Dahlin et al., Assay Drug Dev. Technol., 14:168-174 (2016)). […] The NAPA series was chosen as the primary hit-to-lead series due to its synthetic accessibility and the >2-log range in potency observed in the preliminary SAR that provides a clear pathway to improving antiviral activity and drug-like properties.

[1] = Maximum solubility in water by nephlometry; type: physicochemical; conditions: Maximum solubility in water determined by nephlometry; for solubility kinetic: kinetic from dmso stock
[2] = Cytotoxicity (CC50) against Hela cells for 3 d; type: cell-based; conditions: human
[3] = Murine liver microsome stability; type: in vitro ADME; conditions: % remaining after 30 min at 37° C. in the presence of NADPH
AD169^R (IE1 expression) = assay: Western blot (immunoblot) of IE1 expression in AD169^R-infected cells; type: cell-based, Human cytomegalovirus; conditions: NHDF cells, 24 hpi; MBX-4992 1-10 μM, ganciclovir 5 μM, convallotoxin 0.01 μM
Method: The molecular weight markers and respective proteins are indicated.
FIGS. 12A and B are Western Blot assays showing that MBXC-4336 limits expression of IE1 in fibroblasts and epithelial cells. Total cell lysates from AD169^R-infected (MOI 0.2) NHDF (A) and ARPE-19 (B) cells pre-treated with DMSO, MBX-4336 (0, 1, 5, 10, or 20 μM), or heparin (50 μg/mL) collected at 48 hpi were subjected to Western blot analysis using a rabbit anti-IE-1 antibody (lanes 1-7) and an anti-GAPDH antibody (lanes 8-14) as a loading control. The molecular weight markers and respective proteins are indicated.
Total cell lysates from virus infected NHDF cells treated with compounds were created through SDS-lysis (10^4/100 uL of 1% SDS) of at least three rounds of heating at 95° C. for 3 min and vigorous agitation. The total cell lysates were resolved using an SDS-polyacrylamide gel (12.5%), transferred to a PVDF membrane using a semi-dry apparatus. The membrane was then incubated with 1% BSA/PBS for 1 hr at room temperature followed by incubation with anti-IE1 and anti-GAPDH. Finally, the respective secondary antibody conjugated with HRP was incubated with membrane followed by detection using ECL reagents (Millipore).
Next, inhibition of the expression of IE1 in AD169^R-infected cells treated with MBX-4992 was examined by immunoblot analysis (FIG. 4E). […] Collectively, these findings further indicate that MBX-4992 effectively prevents the expression of the immediate-early genes during a CMV infection.

HCMV strain AD169^R = assay: CMV infection (neutralization) assay, GFP/IE1 readout 24 hpi, AD169^R; type: cell-based, Human cytomegalovirus
Method: (§1) Fibroblasts and ARPE-19 cells (10^4) were plated in 96-well plates (Greiner, Monroe, NC). The following day the cells were pretreated for 1 hour at 37° C. with increasing concentrations of the respective novel NAPA compounds described herein or DMSO in triplicate prior to infection with the respective viruses. At 18 hours post infection (hpi) cells were stained using a rabbit anti-IE1 antibody followed by an anti-rabbit Alexa 647 and measured using a Celigo Cytometer (Parsons et al., Antiviral Res., 193:105124 (2021); Stein et al., Nat. Commun., 10:2699 (2019)). Using the DMSO treated cells as 100% infection, the percent infection of the NAPA compound-treated cells was determined. The half maximal inhibitory (IC50) values were calculated using Prism9's nonlinear fit [inhibitor]-vs-response (four parameters) analysis of these averages and extrapolation to the concentration that would produce 50% infection relative to DMSO treatment.
(§2) To further evaluate the inhibitory properties of MBXC-4302 against CMV, we utilized the AD169 CMV virus strain containing the UL131-UL128 open reading frame of the HCMV strain TR and expressing EGFP (AD169^R) (Wang D. and Shenk T., Proc. Nat. Acad. Sci., USA, 102:18153-18158 (2005)) and TB40/E infection of human fibroblasts (NHDF) and ARPE-19 epithelial cells in the presence of increasing concentration of compound (FIG. 2A-D). Infection was analyzed 24 hours post infection (hpi) by measuring GFP fluorescence encoded by AD169^R or using an anti-IE1 antibody for staining TB40/E infected cells.
NAPA variants with modified groups were evaluated for inhibition of CMV infection in fibroblasts. AD169^R infected fibroblasts were treated with NAPA compounds MBX-4992, MBXC-4325, MBXC-4330, and MBXC-4336 (0-50 μM) and analyzed for infection at 24 hpi (FIG. 6A-D). The infected cells were probed for IE1 as an indication of virus infection.

HCMV strain TB40/E = assay: CMV infection (neutralization) assay, IE1 immunostain 24 hpi, TB40/E; type: cell-based, Human cytomegalovirus
Method: as §1, with “The half maximal inhibitory (IC50) values were calculated using Prism9's nonlinear fit [inhibitor]-vs-response (four parameters) analysis of these averages and extrapolation to the concentration that would produce 50% infection relative to DMSO treatment.” left out
as §2

CYP3A4, sequence (P08684 whole entry, species assumed): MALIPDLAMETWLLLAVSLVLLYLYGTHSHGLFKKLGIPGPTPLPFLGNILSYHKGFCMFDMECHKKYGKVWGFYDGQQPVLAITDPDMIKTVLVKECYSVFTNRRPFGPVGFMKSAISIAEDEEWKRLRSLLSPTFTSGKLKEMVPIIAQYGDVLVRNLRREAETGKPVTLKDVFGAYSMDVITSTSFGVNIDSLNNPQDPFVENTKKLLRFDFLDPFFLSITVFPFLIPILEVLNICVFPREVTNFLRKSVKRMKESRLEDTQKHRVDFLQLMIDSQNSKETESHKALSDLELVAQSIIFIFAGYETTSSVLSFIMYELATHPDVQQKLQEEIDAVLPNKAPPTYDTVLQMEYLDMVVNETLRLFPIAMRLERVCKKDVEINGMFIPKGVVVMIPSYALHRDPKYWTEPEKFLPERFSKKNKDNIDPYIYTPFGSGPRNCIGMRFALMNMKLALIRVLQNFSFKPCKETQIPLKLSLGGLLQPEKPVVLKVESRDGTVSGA

## Cc1ccc(Nc2nc(C)cc(Nc3ccc(NC(=O)Nc4cccc(Cl)c4)cc3)n2)cc1 [MBXC-4300]
CYP3A4
  CYP: N/A 10%
CMV AD169^IE2-YFP
  IC50: 3.8 µM
[1]
  Sol: N/A 3.1 μM
[2]
  CC50 at 3 d: 2.7 µM
[3]
  MLMS: N/A 60%

## C[C@@H]1O[C@@H](O[C@H]2CC[C@]3(C=O)[C@H]4CC[C@]5(C)[C@@H](C6=CC(=O)OC6)CC[C@]5(O)[C@@H]4CC[C@]3(O)C2)[C@H](O)[C@H](O)[C@H]1O [convallatoxin, reference compound]
AD169^R (IE1 expression)
  IE1 expression by immunoblot: prevented infection

## Cc1ccc(Nc2nc(C)cc(Nc3ccc(NS(=O)(=O)c4ccccc4)cc3)n2)cc1 [MBXC-4301]
CMV AD169^IE2-YFP
  IC50: 24 µM
[2]
  CC50 at 3 d: 11 µM

## Cc1nc(Nc2ccc(NC(=O)c3ccco3)cc2)cc(N2CCCCC2)n1 [MBXC-4295]
CYP3A4
  CYP: <10%
CMV AD169^IE2-YFP
  IC50: 0.46 µM
[1]
  solubility kinetic: 50 µM (≈ 18.9 µg/mL)
[2]
  CC50 at 3 d: 54 µM
[3]
  MLMS: 36%

## Cc1ccc(Nc2nc(C)cc(Nc3ccc(NC(=O)c4ccco4)cc3)n2)cc1 [MBXC-4299]
CYP3A4
  CYP: < 10%
CMV AD169^IE2-YFP
  IC50: 0.32 µM
[2]
  CC50 at 3 d: 5.5 µM
[3]
  MLMS: 68%

## Cc1cc(Nc2ccccc2)nc(Nc2ccc(NC(=O)c3ccc(Cl)cc3)cc2)n1 [MBXC-4303]
CMV AD169^IE2-YFP
  IC50: 20 µM
[2]
  CC50 at 3 d: 7 µM

## Cc1nc(Nc2ccc(NC(=O)c3ccco3)cc2)cc(-n2cccn2)n1 [MBXC-4302]
HCMV strain AD169^R; Human betaherpesvirus 5, AD169, ARPE-19
  IC50: 5.8 µM
HCMV strain AD169^R; Human betaherpesvirus 5, AD169, NHDF
  IC50: 3 µM
CYP3A4
  CYP: <10%
CMV AD169^IE2-YFP
  IC50: 3.2 µM
HCMV strain TB40/E; Human betaherpesvirus 5, ARPE-19
  IC50: ~5.3 µM
HCMV strain TB40/E; Human betaherpesvirus 5, NHDF
  IC50: ~5.3 µM
[1]
  solubility kinetic: 12.5 µM (≈ 4.5 µg/mL)
[2]
  CC50 at 3 d: > 100 µM
[3]
  MLMS: 62%

## Cc1ccc(Nc2cc(C)nc(Nc3ccc(NC(=O)c4ccco4)cc3)n2)cc1 [MBXC-4304]
CYP3A4
  CYP: 16%
CMV AD169^IE2-YFP
  IC50: 0.48 µM
[2]
  CC50 at 3 d: 5.8 µM
[3]
  MLMS: 63%

## Cc1ccc(Nc2cc(Nc3ccc(NC(=O)c4ccco4)cc3)nc(C)n2)cc1 [MBXC-4297]
CYP3A4
  CYP: <10%
CMV AD169^IE2-YFP
  IC50: 0.37 µM
[1]
  solubility kinetic: 25 µM (≈ 9.99 µg/mL)
[2]
  CC50 at 3 d: 21 µM
[3]
  MLMS: 44%

## Cc1nc(Nc2ccc(NC(=O)c3ccco3)cc2)cc(N(C)C)n1 [MBX-4991]
CYP3A4
  CYP: 18%
CMV AD169^IE2-YFP
  IC50: 2.3 µM
[1]
  solubility kinetic: > 200 µM
[2]
  CC50 at 3 d: > 100 µM
[3]
  MLMS: 65%

## CCNc1cc(Nc2ccc(NC(=O)c3ccco3)cc2)nc(C)n1 [MBXC-4298]
CYP3A4
  CYP: 50%
CMV AD169^IE2-YFP
  IC50: 3.7 µM
[1]
  solubility kinetic: 200 µM (≈ 67.5 µg/mL)
[2]
  CC50 at 3 d: 29 µM
[3]
  MLMS: 64%

## Cc1nc(Nc2ccc(NC(=O)c3cccs3)cc2)cc(N(C)C)n1 [MBXC-4294]
CMV AD169^IE2-YFP
  IC50: > 40 µM
[2]
  CC50 at 3 d: 57 µM
